Experimental data as given in patent US20230371508A1, “COMPOSITIONS AND METHODS FOR KILLING INSECT AND NON-INSECT PESTS” (The United States of America, as represented by the …, priority 2018, published 2023).
Values after ≈ are worked out from the molar mass of the structure shown. “Also recorded” adds a separate entry of the source. Read-outs that look alike come from different tables or passages of the source.

What was measured:
D. suzukii = assay: Insecticidal activity on larvae and pupae development and adult emergence in pre-infested blueberries (dip); type: in vivo, Drosophila suzukii; conditions: for Adults / Larvae / Pupae: pre-infested berries soaked 2 min in 1% solution, assessed after 10 days at room temperature, mean of three replicates (standard error)
Protocol: Impacts of MB and other compounds on D. suzukii control: To investigate the acute toxicity of some compounds of formula 1 against D. suzukii, a published procedure was followed (Cuthbertson, A. G. S., et al., Insects, 5: 488-498 (2014)). First, mixed-sex adults D. suzukii (100) were introduced into a plastic cage (30×30×30 cm) and reared on blueberries (100) for 4 days. After that, the infested blueberries were taken out from the cage. Half of the blueberries (50) were dipped in 100 mL aqueous emulsion of each compound listed in Table 1 at 1% concentration for 2 min as treatment, while the other half of the blueberries (50) were dipped in DI water for 2 min as blank control. Then the corresponding blueberries were separately taken out, placed in two different Petri dishes, and allowed to air dry for 2 h. Second, treatment and blank control blueberries were respectively stored in two plastic cups (32 oz) with closed caps and incubated at room temperature for 10 days. The emergence of adults was then subsequently assessed. The developments of larvae and pupae were further inspected by dissection of the treatment and blank control berries. Each treatment and blank control was repeated three times.

H. halys nymphs [1] = assay: Nymphicidal toxicity, treated filter paper in glass vial; type: in vivo; conditions: for LC50 (95% CL): 24 hr
Protocol: Toxicities of MB, some compounds of formula 1, and commercial pesticides on H. halys nymphs: The bioassays were carried out in glass vials (20 mL), following a published procedure (Nielsen, A. L., et al., J. Econ. Entomol., 101: 1439-1442 (2008)). Filter paper was cut into round shape pieces (2.4 cm diameter). 50 μL acetone solution of one derivative or commercial pesticide with different concentrations was loaded onto the filter paper evenly, and the filter paper was dried for 1 min and then put into the bottom of vial. A small piece of green bean was put on the filter paper in the vial as food source. Different stages of H. halys nymphs were introduced into the vial and capped with a cotton ball. For each stage, 30 nymphs were used for each amount. For the nymphs of the first instar, 10 nymphs were put into 1 vial. For the nymphs of the second and third instar, 5 nymphs were put into 1 vial. For the nymphs of the fourth instar, 3 nymphs were put into 1 vial. For the nymphs of the fifth instar, 2 nymphs were put into 1 vial. The mortality was assessed after 24 hr.

H. halys eggs = assay: Ovicidal toxicity, direct spray on eggs; type: in vivo; conditions: eggs sprayed, 10 days
Text: (§1) Ovicidal toxicities of MB and some compounds of formula 1: The aqueous solutions of one of the compounds of formula 1 with designated concentrations with different concentrations of active ingredient (AI) were separately stored in glass spray bottles according to a published procedure (Cuthbertson 2014). The eggs (10 for H. halys and 100 for P. xylostella) were laid on filter papers in Petri dishes. Different aqueous insecticidal solutions were sprayed on the surfaces of different eggs three times (˜0.5 mL) to completely cover the treatment areas. Then the Petri dishes were covered with lids and maintained in a fume hood for 10 days. The Petri dishes were then inspected for presence of nymph/larvae development or numbers of unhatched eggs.

Plutella xylostella eggs = assay: Ovicidal toxicity, direct spray on eggs; type: in vivo; conditions: hatchability after 10 days; 0.05% and 0.1% concentrations (FIG. 3)
Text: as §1

L. dispar larvae = assay: Larvicidal toxicity, treated filter paper in Petri dish; type: in vivo; conditions: for LC50 (95% CL): 1st stage larvae, 24 hr; for larvicidal toxicity against L. dispar (in words): in vivo; for decreased toxicities compared with MB: from LC50 values
Protocol: Toxicities of MB and some compounds of formula 1 on L. dispar larvae: The bioassays were carried out in plastic Petri dish loaded with filter paper, following a published procedure (Nielsen 2008). 600 μL acetone solution of one derivative with different concentrations was loaded onto the filter paper (90 mm diameter) evenly, and the filter paper was dried for 2 min and then put into the bottom of Petri dish. 10 L. dispar larvae were put onto the Petri dish and covered with a lid. 30 larvae were used for each amount. The mortality was assessed after 24 hr.

S. invicta workers [2] = assay: Fumigant toxicity in sealed glass flask; type: in vivo, Solenopsis invicta; conditions: for LC50 / mortality at 1.43 µg/mL: Solenopsis invicta; for fumigant toxicity against S. invicta (in words): in vivo
Protocol: A 250-ml glass flask (the whole volume is 280 ml) was used to house worker ants in fumigant toxicity bioassays. Two micro-liter of acetone solution of the tested compound was applied onto a paraffin film, which was used to seal the flask with ants. The treated spot of the paraffin film faced the inside of the flask. The upper part of the flask was coated with Fluon® to prevent ants from contacting the test material. Two experiments were conducted. […] LC50 value was established using 5 dosages. Each dosage was replicated 3 times for each of 3 colonies. Each replicate consisted of 15 to 26 ants. Ants that could not stand by themselves were considered dead. Dead ants were counted after 24 h.

S. invicta workers [3] = conditions: for increase of mean mortality compared with MB / mean mortality: dose 77.9 μg/ant, 24 h
Protocol: Fire ant bioassays were conducted in USDA, ARS Stoneville laboratory at 25° C., 80% R.H. with a 12:12 (L:D) photoperiod. Contact toxicities of MB and some compounds of formula 1 against fire ants: Topical application was used for contact toxicity bioassay. Only large workers were used for a purpose of relatively uniform body weight and ease of handling. For all compounds, acetone was used as a solvent. The solution was applied using a 0.779 μl capillary tube. Two experiments were conducted for assessing contact toxicity. […] In order to investigate the structure-activity relationship, LD50 values were also established for MB and EB. […] For each LD50 value, 5 doses of benzoates were used. Each dose was replicated 3 times. Each replicate consisted of 13 to 18 ants. Treated ants were placed in a 30-ml capped cup and dead ants were counted after 24 h.

[4] = Sigma-Aldrich SDS; cited from earlier work
[5] = Release rate (evaporation from cotton ball in tube); type: physicochemical; conditions: room temperature, hood air flow 129 FPM
Protocol: Release rate: Release rate tests of selective compounds were carried out in the laboratory. 1 mL of each compound was loaded on a cotton ball in a polypropylene flex tube (1.5 mL Eppendorf micro-centrifuge tube, VWR International, Radnor, PA). The tubes were hung in the hood with air flow of 129 FPM. At 2 pm on each weekday, the tubes were weighed and recorded (Zhang, A., et al., Environ. Entomol., 37: 719-724 (2008)). Each treatment was replicated 5 times.

H. halys nymphs [6] = conditions: 24 hr, copied from previous research, cited from earlier work
[7] = 24 h, read-out: mean LC50 value, mean over colonies, 24 h
[8] = 24 h, read-out: mean mortality, dosage 1.43 μg/ml, 24 h

SMILES	Adults (D. suzukii)	Larvae (D. suzukii)	Pupae (D. suzukii)	LC50 (95% CL) (H. halys nymphs [1]; 2nd stage nymphs)	LC50 (95% CL) (H. halys eggs)	LC50 (95% CL) (L. dispar larvae)	larvicidal toxicity against L. dispar (in words) (L. dispar larvae)	LC50 (S. invicta workers [2]; 24 h, colony 1, 24 h) [µg/mL]	LC50 (S. invicta workers [2]; 24 h, colony 2, 24 h) [µg/mL]	LC50 (S. invicta workers [2]; 24 h, colony 3, 24 h) [µg/mL]	LC50 (S. invicta workers [2]; [7]) [µg/mL]	mortality at 1.43 µg/mL (S. invicta workers [2]; [8]) [%]	fumigant toxicity against S. invicta (in words) (S. invicta workers [2])	decreased toxicities compared with MB (L. dispar larvae) [%]	LD50 (S. invicta workers [3]; colony 1, 24 h) [μg/ant]	LD50 (S. invicta workers [3]; colony 2, 24 h) [μg/ant]	LD50 (S. invicta workers [3]; colony 3, 24 h) [μg/ant]	increase of mean mortality compared with MB (S. invicta workers [3]) [times]	mean mortality (S. invicta workers [3]) [%]	hazard according to Safety Data Sheet (SDS) from the producer [4]	further results
C=COC(=O)c1ccccc1 [VB, vinyl benzoate]	0	0	0	1.131 (0.757-1.337) μL/vial	0.017 (0.010-0.024) mg/cm^2	0.065 (0.059-0.071) mg/cm^2	highest larvicidal toxicity	0.95 (≈ 6.41 µM)	0.77 (≈ 5.2 µM)	0.96 (≈ 6.48 µM)	0.89 (≈ 6.01 µM)	~100	powerful fumigant toxicities	–	–	–	–	–	–	–	ovicidal toxicity against P. xylostella eggs (in words) (Plutella xylostella eggs): highest toxicity; times more toxic than commercial pesticide acetamiprid (L. dispar larvae; ratio of LC50 values): 3.4 times; times more toxic than commercial pesticide pyriproxyfen (L. dispar larvae; ratio of LC50 values): 1.3 times
COC(=O)c1cccc(OC)c1 [M3MOB, methyl 3-methoxybenzoate]	0	0	0	–	0.016 (0.008-0.026) mg/cm^2	0.234 (0.216-0.258) mg/cm^2	–	0.64 (≈ 3.85 µM)	0.54 (≈ 3.25 µM)	0.65 (≈ 3.91 µM)	0.61 (≈ 3.67 µM)	~100	–	50	112.72	81.78	47.52	6	47.23	not even considered as a hazardous substance	LC50 (95% CL) (H. halys nymphs [1]; 3rd stage nymphs): 1.509 (1.322-1.792) μL/vial
CCCCCCOC(=O)c1ccccc1 [nHB, n-hexyl benzoate]	33.7(7.4)	7.0(1.0)	40.3(7.0)	–	–	–	did not show any toxicities	–	–	–	–	–	–	–	37.1	42.23	28.64	–	–	neither known OSHA hazards nor aquatic toxicity	insecticidal toxicity against D. suzukii (in words) (D. suzukii; 1% concentration on 4 days pre-infested blueberries, 10 days incubation): did not show any insecticidal activities; toxicity against H. halys nymphs (in words) (H. halys nymphs [1]; in vivo): did not show toxicities; contact toxicity against S. invicta (in words) (S. invicta workers [3]; in vivo): comparable results; also recorded: potent contact toxicities
COC(=O)c1ccccc1 [MB, methyl benzoate]	0	0	0	–	0.020 (0.012-0.026) mg/cm^2	0.114 (0.091-0.134) mg/cm^2	–	–	–	–	–	–	powerful fumigant toxicities	–	149.39	93.65	128.45	–	7.67	–	LC50 (S. invicta workers [2]; 24 h, colony 1, 24 h, read-out: LC50): 0.77 µg/mL (≈ 5.66 µM); LC50 (S. invicta workers [2]; 24 h, colony 2, 24 h, read-out: LC50): 0.66 µg/mL (≈ 4.85 µM); LC50 (S. invicta workers [2]; 24 h, colony 3, 24 h, read-out: LC50): 0.82 µg/mL (≈ 6.02 µM); mortality at 1.43 µg/mL (S. invicta workers [2]; 24 h, dosage 1.43 μg/ml, 24 h, read-out: mean mortality): ~100%; LC50 (S. invicta workers [2]; 24 h, mean over colonies, 24 h, read-out: mean LC50 value): 0.75 µg/mL (≈ 5.51 µM); mean mortality (S. invicta workers [2]; dosage 1.43 μg/ml, 24 h): 100%; first order evaporation rate constant k (exponent of fitted curve) [5]: 0.162; LC50 (95% CL) (H. halys nymphs [6]; 1st stage nymphs): 1.03 (0.93-1.10) μL/vial; LC50 (95% CL) (H. halys nymphs [6]; 2nd stage nymphs): 1.01 (0.86-1.12) μL/vial; LC50 (95% CL) (H. halys nymphs [6]; 3rd stage nymphs): 1.23 (1.12-1.33) μL/vial; LC50 (95% CL) (H. halys nymphs [6]; 4th stage nymphs): 2.39 (2.19-2.60) μL/vial; LC50 (95% CL) (H. halys nymphs [6]; 5th stage nymphs): 1.77 (1.60-1.93) μL/vial
COC(=O)c1ccccc1OC [M2MOB, methyl 2-methoxybenzoate]	0	0	0	1.530 (1.309-1.951) μL/vial	0.011 (0.006-0.015) mg/cm^2	0.230 (0.170-0.294) mg/cm^2	–	–	–	–	–	–	significantly reduced	50	67.73	96.43	78.34	7	55.74	–	first order evaporation rate constant k (exponent of fitted curve) [5]: 8E-04
